≈ marks a conversion by molar mass, not a printed value.
Legend:
[1] = tested on: human embryonic kidney 293 cells; test: in vitro toxicities against human embryonic kidney 293 cells; format: cell-based; conditions: human embryonic kidney 293 cells
Excerpt: (§1) These properties can be determined according to techniques that are well known in the art.

[2] = tested on: mammalian_red blood cell membrane; test: In vitro mammalian red blood cell membrane lysis activity; format: cell-based; conditions: Active or inactive at 100 μM
Excerpt: as §1

[3] = tested on: human peripheral blood cells; test: in vitro toxicities human peripheral blood cells; format: cell-based; conditions: human peripheral blood cells
Excerpt: as §1

S. aureus membrane = test: In vitro activity in depolarization of S. aureus membrane; format: cell-based; conditions: read-out: DEP (IC50)
Excerpt: as §1

E. Coli RNAP = E. Coli RNAP (Escherichia coli, UniProt P0A8T7+P0A8V2); test: In vitro activity against E. Coli RNAP; format: biochemical
Excerpt: as §1

[4] = aqueous solubility at pH 7.4; format: physicochemical; conditions: aqueous solubility at pH 7.4 (water with 2% DMSO)
Excerpt: as §1

S4 = test: MIC determination (bacteria), strain S4; format: cell-based, S. aureus; conditions: Table 1; 2-fold broth dilution
Experimental: (§2) MIC determination (bacteria); MICs were determined based on Clinical and Laboratory Standards Institute (CLSI) methodology (Methods for dilution antimicrobial susceptibility tests for bacteria that grow aerobically; Approved Standard—seventh edition. 2006, M7-A7, CLSI, Wayne Pa.) by a 2-fold broth dilution technique in Mueller Hinton (pH7.4 Biorad). For S. pneumoniae, the medium was supplemented with 2.5% laked horse blood. For H. influenzae, the medium was haemophilus test medium (H.T.M.). Overnight cultures were diluted to obtain the final inoculum of 10^5 cfu/well. Incubation was 37° C. overnight in ambient air. The MIC was defined as the lowest concentration which inhibited all visual growth and expressed in μg/ml. For each bacterial species, all of the molecules were tested in the same experiment in order to give a head-to-head comparison.

S1 = test: MIC determination (bacteria), strain S1; format: cell-based, S. aureus; conditions: Table 1; 2-fold broth dilution
Experimental: as §2

E1 = test: MIC determination (bacteria), strain E1; format: cell-based, enterococcus; conditions: Table 1; 2-fold broth dilution
Experimental: as §2

P9 = test: MIC determination (bacteria), strain P9; format: cell-based, S. pneumoniae; conditions: Table 1; 2-fold broth dilution
Experimental: as §2

E2 = test: MIC determination (bacteria), strain E2; format: cell-based, enterococcus; conditions: Table 1; 2-fold broth dilution
Experimental: as §2

P9B = test: MIC determination (bacteria), strain P9B; format: cell-based, S. pneumoniae; conditions: Table 1; 2-fold broth dilution
Experimental: as §2

[5] = tested on: S2 (S. aureus 2, MRSA in vivo); test: MIC determination (bacteria), strain S2; format: cell-based; conditions: Table 1; 2-fold broth dilution
Experimental: as §2

H3 = test: MIC determination (bacteria), strain H3; format: cell-based, H. influenzae; conditions: Table 1; haemophilus test medium
Experimental: as §2

P1 = test: MIC determination (bacteria), strain P1; format: cell-based, S. pneumoniae; conditions: Table 1; 2-fold broth dilution
Experimental: as §2

S26 = test: MIC determination (bacteria), strain S26; format: cell-based, S. aureus; conditions: Table 1; 2-fold broth dilution
Experimental: as §2

H4 = test: MIC determination (bacteria), strain H4; format: cell-based, H. influenzae; conditions: Table 1; haemophilus test medium
Experimental: as §2

Sequence of E. Coli RNAP (P0A8V2 whole entry): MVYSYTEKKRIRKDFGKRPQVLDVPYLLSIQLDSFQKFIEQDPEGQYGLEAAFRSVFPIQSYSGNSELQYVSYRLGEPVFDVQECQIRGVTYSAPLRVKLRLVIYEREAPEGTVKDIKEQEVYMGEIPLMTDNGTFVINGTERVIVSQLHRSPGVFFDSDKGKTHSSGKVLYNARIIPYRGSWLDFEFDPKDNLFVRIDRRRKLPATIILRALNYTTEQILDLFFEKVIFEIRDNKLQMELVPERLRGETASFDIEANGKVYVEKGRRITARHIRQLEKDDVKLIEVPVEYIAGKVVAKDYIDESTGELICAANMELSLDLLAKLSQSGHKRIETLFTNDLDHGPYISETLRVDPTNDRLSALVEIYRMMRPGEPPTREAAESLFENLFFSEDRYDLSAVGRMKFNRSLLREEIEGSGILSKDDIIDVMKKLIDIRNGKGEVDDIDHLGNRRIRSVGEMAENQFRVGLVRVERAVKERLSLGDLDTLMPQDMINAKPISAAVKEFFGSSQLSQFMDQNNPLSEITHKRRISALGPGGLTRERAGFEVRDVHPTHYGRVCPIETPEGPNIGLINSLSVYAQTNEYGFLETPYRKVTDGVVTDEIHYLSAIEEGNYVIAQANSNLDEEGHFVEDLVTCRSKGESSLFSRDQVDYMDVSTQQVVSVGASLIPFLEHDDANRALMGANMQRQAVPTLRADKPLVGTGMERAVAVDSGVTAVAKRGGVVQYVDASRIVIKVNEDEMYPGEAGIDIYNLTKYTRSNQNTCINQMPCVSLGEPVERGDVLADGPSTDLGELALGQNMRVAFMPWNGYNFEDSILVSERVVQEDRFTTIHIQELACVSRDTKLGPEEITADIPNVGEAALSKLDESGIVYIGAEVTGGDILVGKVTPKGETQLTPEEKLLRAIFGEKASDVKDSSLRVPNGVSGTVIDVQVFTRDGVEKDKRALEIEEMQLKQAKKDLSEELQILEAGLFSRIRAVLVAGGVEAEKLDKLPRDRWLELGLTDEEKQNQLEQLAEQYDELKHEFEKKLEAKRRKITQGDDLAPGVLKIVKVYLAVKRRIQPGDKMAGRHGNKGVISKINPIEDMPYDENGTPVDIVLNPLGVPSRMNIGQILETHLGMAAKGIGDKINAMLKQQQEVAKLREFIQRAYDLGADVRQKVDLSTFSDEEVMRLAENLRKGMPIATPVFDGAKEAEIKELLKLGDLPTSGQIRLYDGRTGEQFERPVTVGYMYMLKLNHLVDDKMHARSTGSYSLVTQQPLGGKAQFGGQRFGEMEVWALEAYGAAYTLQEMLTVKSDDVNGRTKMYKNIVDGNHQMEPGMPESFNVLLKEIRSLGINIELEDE
Sequence of E. Coli RNAP (P0A8T7 whole entry): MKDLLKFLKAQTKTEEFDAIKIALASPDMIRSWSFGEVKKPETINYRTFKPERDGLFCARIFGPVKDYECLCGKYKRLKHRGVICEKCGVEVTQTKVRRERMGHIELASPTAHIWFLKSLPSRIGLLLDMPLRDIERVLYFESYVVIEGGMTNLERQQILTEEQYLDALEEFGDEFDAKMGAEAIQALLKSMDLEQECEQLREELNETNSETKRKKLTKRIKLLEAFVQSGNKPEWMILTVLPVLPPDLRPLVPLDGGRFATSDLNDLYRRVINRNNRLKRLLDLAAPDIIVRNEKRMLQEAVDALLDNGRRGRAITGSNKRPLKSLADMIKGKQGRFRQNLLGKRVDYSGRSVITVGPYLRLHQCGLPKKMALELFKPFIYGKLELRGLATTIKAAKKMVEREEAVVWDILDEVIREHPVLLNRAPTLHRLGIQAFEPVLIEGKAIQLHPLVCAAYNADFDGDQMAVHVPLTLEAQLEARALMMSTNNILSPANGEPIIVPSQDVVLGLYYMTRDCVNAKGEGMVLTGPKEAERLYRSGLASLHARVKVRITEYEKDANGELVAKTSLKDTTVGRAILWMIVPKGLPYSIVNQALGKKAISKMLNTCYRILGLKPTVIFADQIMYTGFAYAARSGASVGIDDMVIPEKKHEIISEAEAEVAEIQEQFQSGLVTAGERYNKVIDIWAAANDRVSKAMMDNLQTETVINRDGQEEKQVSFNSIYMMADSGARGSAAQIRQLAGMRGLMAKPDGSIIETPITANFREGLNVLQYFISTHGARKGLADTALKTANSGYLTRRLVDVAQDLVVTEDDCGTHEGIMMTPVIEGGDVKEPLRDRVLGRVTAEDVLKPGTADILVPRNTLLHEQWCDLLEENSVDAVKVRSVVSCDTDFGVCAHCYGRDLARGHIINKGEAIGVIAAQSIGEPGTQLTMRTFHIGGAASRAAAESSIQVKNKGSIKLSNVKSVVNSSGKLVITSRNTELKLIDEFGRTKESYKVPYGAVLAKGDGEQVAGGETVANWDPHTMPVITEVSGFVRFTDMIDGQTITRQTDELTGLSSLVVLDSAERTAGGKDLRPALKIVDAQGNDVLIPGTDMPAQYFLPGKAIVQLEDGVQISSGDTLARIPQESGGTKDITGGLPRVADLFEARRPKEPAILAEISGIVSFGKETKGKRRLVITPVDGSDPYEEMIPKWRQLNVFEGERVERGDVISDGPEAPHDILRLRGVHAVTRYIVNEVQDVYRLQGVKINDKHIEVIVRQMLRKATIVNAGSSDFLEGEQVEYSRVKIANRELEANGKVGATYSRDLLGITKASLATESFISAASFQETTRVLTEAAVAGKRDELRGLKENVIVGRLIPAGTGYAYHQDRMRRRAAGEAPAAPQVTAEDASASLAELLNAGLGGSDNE
Sequence of E. Coli RNAP (P0A7Z4 whole entry partner): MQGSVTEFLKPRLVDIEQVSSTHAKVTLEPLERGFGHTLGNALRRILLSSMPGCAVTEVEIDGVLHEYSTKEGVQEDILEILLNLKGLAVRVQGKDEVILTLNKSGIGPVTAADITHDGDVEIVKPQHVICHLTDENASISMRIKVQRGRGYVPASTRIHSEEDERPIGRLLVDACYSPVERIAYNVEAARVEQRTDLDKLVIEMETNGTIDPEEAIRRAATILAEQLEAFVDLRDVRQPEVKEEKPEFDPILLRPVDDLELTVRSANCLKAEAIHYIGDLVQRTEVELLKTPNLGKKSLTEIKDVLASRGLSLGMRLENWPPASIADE
Sequence of E. Coli RNAP (P0A800 whole entry partner): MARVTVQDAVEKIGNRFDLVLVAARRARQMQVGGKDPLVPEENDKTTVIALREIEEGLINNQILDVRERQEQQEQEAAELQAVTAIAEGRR

Structure (SMILES) | Hek293 (LD50, μM) [1] | RBC membrane lysis activity (active/inactive) [2] | PMBC (LD50, μM) [3] | IC50 (S. aureus membrane) | IC50 (E. Coli RNAP) | SOL [4] | MIC S4 (S4) | MIC S1 (S1) | MIC E1 (E1) | MIC P9 (P9) | MIC E2 (E2) | MIC P9B (P9B) | MIC S2 [5] | MIC H3 (H3) | MIC P1 (P1) | MIC S26 (S26) | MIC H4 (H4) | RBCL (IC50, μM) [2]
CCCCCCCCCCCCC/C(O)=C1\C(=O)[C@@H]2CCCC(=O)N2C1=O [22b] | 90.9 µM | Active | >90.9 µM | > 100 µM | > 100 µM | 38 to 75 µM |  |  |  |  |  |  |  |  |  |  |  | 
CCCCCCCCCCCC(O)=C1C(=O)C(CCSC)N(C(C)=O)C1=O (stereo not shown) [24b] | 30.3 µM |  | 90.9 µM |  | 25 µM | >300 µM | 1 µg/mL (≈ 2.52 µM) | 0.25 µg/mL (≈ 0.629 µM) | <0.06 µg/mL | <0.06 µg/mL | <0.06 µg/mL | 0.5 µg/mL (≈ 1.26 µM) | 1 µg/mL (≈ 2.52 µM) | 2 µg/mL (≈ 5.03 µM) | <0.06 µg/mL | 2 µg/mL (≈ 5.03 µM) | 2 µg/mL (≈ 5.03 µM) | 
CCCCCCCC(O)=C1C(=O)C(CCSC)N(C(=O)C2CCCCC2)C1=O (stereo not shown) [24e] | >90.9 µM | Inactive^d | >90.9 µM | > 100 µM |  | >300 µM | 2 µg/mL (≈ 4.88 µM) | 0.5 µg/mL (≈ 1.22 µM) | 0.25 µg/mL (≈ 0.61 µM) | 0.12 µg/mL (≈ 0.293 µM) | 0.5 µg/mL (≈ 1.22 µM) | 1 µg/mL (≈ 2.44 µM) | 0.5 µg/mL (≈ 1.22 µM) | 16 µg/mL (≈ 39.1 µM) | 0.12 µg/mL (≈ 0.293 µM) | 1 µg/mL (≈ 2.44 µM) | 2 µg/mL (≈ 4.88 µM) | 
CCCCCC(O)=C1C(=O)C(CCSC)N(C(=O)CC(C)CC(C)(C)C)C1=O (stereo not shown) [24i] | 10.1 µM |  | 30.3 µM | > 100 µM | 33 µM | >300 µM | 0.5 µg/mL (≈ 1.21 µM) | 0.25 µg/mL (≈ 0.607 µM) | 0.5 µg/mL (≈ 1.21 µM) | 0.25 µg/mL (≈ 0.607 µM) | 0.25 µg/mL (≈ 0.607 µM) | 2 µg/mL (≈ 4.86 µM) | 0.5 µg/mL (≈ 1.21 µM) | 8 µg/mL (≈ 19.4 µM) | 0.25 µg/mL (≈ 0.607 µM) | 1 µg/mL (≈ 2.43 µM) | 2 µg/mL (≈ 4.86 µM) | Active
CCCCCCCC(O)=C1C(=O)C(CCSC)N(C(=O)CC(C)CC(C)(C)C)C1=O (stereo not shown) [24j] | 10.1 µM | Active | 30.3 µM | > 100 µM | 19 µM | >300 µM | 0.5 µg/mL (≈ 1.14 µM) | 0.5 µg/mL (≈ 1.14 µM) | 0.25 µg/mL (≈ 0.569 µM) | 0.12 µg/mL (≈ 0.273 µM) | 0.25 µg/mL (≈ 0.569 µM) | 4 µg/mL (≈ 9.1 µM) | 0.5 µg/mL (≈ 1.14 µM) | >64 µg/mL | 0.12 µg/mL (≈ 0.273 µM) | 1 µg/mL (≈ 2.27 µM) | 2 µg/mL (≈ 4.55 µM) | 
CCCCCCCCCC(O)=C1C(=O)C(CCSC)N(C(=O)CC(C)CC(C)(C)C)C1=O (stereo not shown) [24k] | 10.1 µM | Active | 90.9 µM | 68.8 µM |  | >300 µM | 0.5 µg/mL (≈ 1.07 µM) | 0.5 µg/mL (≈ 1.07 µM) | 0.5 µg/mL (≈ 1.07 µM) | 0.12 µg/mL (≈ 0.257 µM) | 0.25 µg/mL (≈ 0.535 µM) | 2 µg/mL (≈ 4.28 µM) | 0.5 µg/mL (≈ 1.07 µM) | >64 µg/mL | 0.25 µg/mL (≈ 0.535 µM) | 1 µg/mL (≈ 2.14 µM) | 64 µg/mL (≈ 137 µM) | 
CCCCCCCCCC(O)=C1C(=O)C(CCSC)N(C(=O)Cc2cccs2)C1=O (stereo not shown) [24m] | 30.3 µM | Active | 90.9 µM | > 100 µM |  | >300 µM | 2 µg/mL (≈ 4.43 µM) | 2 µg/mL (≈ 4.43 µM) | 2 µg/mL (≈ 4.43 µM) | 0.25 µg/mL (≈ 0.554 µM) | 0.5 µg/mL (≈ 1.11 µM) | 4 µg/mL (≈ 8.86 µM) | 2 µg/mL (≈ 4.43 µM) | 16 µg/mL (≈ 35.4 µM) | 0.5 µg/mL (≈ 1.11 µM) | 4 µg/mL (≈ 8.86 µM) | 4 µg/mL (≈ 8.86 µM) | 

Reference: patent US9765069B2, “Antimicrobial compounds” (OXFORD UNIVERSITY INNOVATION LIMITED, priority 2012, dated 2017)
